Test results published in publication PMC5983452 (PLoS ONE, 2018).
Counter-ions that a name gives are not always drawn. Like-named read-outs stand apart in the source and are kept apart here.

Tested on: panel of 240 cancer cell lines
Assay: Proliferation in a broad panel of 240 cancer cell lines, 2D culture (Eurofins Panlabs Oncopanel)
Assay type: cell-based
Conditions: read-out: IC50
Description: Cell lines used in these experiments were obtained from the following sources and were cultured according to conditions specified by the respective cell banks. […] The cell lines listed above were tested for mycoplasma and were negative. Cells were authenticated by STR method or vendor protocols. All 313 cell lines in the CRIPSR pooled screen were purchased from commercial vendors and were STR authenticated and mycoplasma negative. A broad panel of cancer cell lines was screened in the Eurofins Oncopanel. All cells in this panel were mycoplasma negative and STR verified.

NC1CCC(S(=O)(=O)N2C3CCC2CC(NC(=O)c2cc(C4CC4)on2)C3)CC1 [EPZ028862, N-((1R,3R,5S)-8-((1r,4R)-4-aminocyclohexylsulfonyl)-8-aza-bicyclo[3.2.1]octan-3-yl)-5-cyclopropylisoxazole-3-carboxamide hydrochloride]
IC50 (5637, Bladder): > 25 µM | IC50 (A7, Skin): > 25 µM | IC50 (AGS, Colon/GI): > 25 µM | IC50 (BC-1, Haematopoietic and lymphoid): > 25 µM | IC50 (BM-1604, BM-1604, Prostate): > 25 µM | IC50 (C32, Skin): > 25 µM | IC50 (C32TG, Skin): > 25 µM | IC50 (C-4 I, Female GU): > 25 µM | IC50 (CEM/C1, CEM-C1, Haematopoietic and lymphoid): > 25 µM | IC50 (CML-T1, CML-T1, Haematopoietic and lymphoid): > 25 µM | IC50 (DB, Haematopoietic and lymphoid): > 25 µM | IC50 (DK-MG, CNS): > 25 µM | IC50 (EB-3, Haematopoietic and lymphoid): > 25 µM | IC50 (EM-2, Haematopoietic and lymphoid): > 25 µM | IC50 (ES-2, Female GU): > 25 µM | IC50 (H4, CNS): > 25 µM | IC50 (HLE, Liver): > 25 µM | IC50 (HLF, Liver): > 25 µM | IC50 (HOS, Soft Tissue): > 25 µM | IC50 (HT, Haematopoietic and lymphoid): > 25 µM | IC50 (HT-3, Female GU): > 25 µM | IC50 (HUH-6-clone5, HUH-6 Clone 5, Liver): > 25 µM | IC50 (Homo sapiens, 22Rv1, 22Rv1, Prostate): > 25 µM | IC50 (Homo sapiens, 639-V, Bladder): > 25 µM | IC50 (Homo sapiens, 647-V, Bladder): > 25 µM | IC50 (Homo sapiens, 769-P, Kidney): > 25 µM | IC50 (Homo sapiens, 786-0, 786-O, Kidney): > 25 µM | IC50 (Homo sapiens, A101D, Skin): > 25 µM | IC50 (Homo sapiens, A 172, A172, CNS): > 25 µM | IC50 (Homo sapiens, A204, A204, Soft Tissue): > 25 µM | IC50 (Homo sapiens, A498, A498, Kidney): > 25 µM | IC50 (Homo sapiens, A549, A549, Lung): > 25 µM | IC50 (Homo sapiens, A673, A-673, Soft Tissue): > 25 µM | IC50 (Homo sapiens, A-375, A375, Skin): > 25 µM | IC50 (Homo sapiens, A-427, A427, Lung): > 25 µM | IC50 (Homo sapiens, A-431, A431, Skin): > 25 µM | IC50 (Homo sapiens, ACHN, Kidney): > 25 µM | IC50 (Homo sapiens, AN3-CA, AN3 CA, Female GU): > 25 µM | IC50 (Homo sapiens, ARH-77, ARH-77, Haematopoietic and lymphoid): > 25 µM | IC50 (Homo sapiens, ASPC1, AsPC-1, Pancreas): > 25 µM | IC50 (Homo sapiens, AU565, AU565, Breast): > 25 µM | IC50 (Homo sapiens, BE(2)-C, BE(2)C, CNS): > 25 µM | IC50 (Homo sapiens, BFTC-905, BFTC-905, Bladder): > 25 µM | IC50 (Homo sapiens, BHT-101, BHT-101, Endocrine): > 25 µM | IC50 (Homo sapiens, BPH-1, BPH1, Prostate): > 25 µM | IC50 (Homo sapiens, BT-20, BT20, Breast): > 25 µM | IC50 (Homo sapiens, BT-474, BT474, Breast): > 25 µM | IC50 (Homo sapiens, BT-549, BT-549, Breast): > 25 µM | IC50 (Homo sapiens, BV-173, BV-173, Haematopoietic and lymphoid): > 25 µM | IC50 (Homo sapiens, BXPC-3, BxPC-3, Pancreas): > 25 µM | IC50 (Homo sapiens, BeWo, Female GU): > 25 µM | IC50 (Homo sapiens, C-4-II, C-4 II, Female GU): > 25 µM | IC50 (Homo sapiens, C-33-A, C-33A, Female GU): > 25 µM | IC50 (Homo sapiens, CAKI-1, Caki-1, Kidney): > 25 µM | IC50 (Homo sapiens, CAKI-2, Caki-2, Kidney): > 25 µM | IC50 (Homo sapiens, CAL-27, Cal 27, Head and Neck): > 25 µM | IC50 (Homo sapiens, CAL-62, CAL-62, Endocrine): > 25 µM | IC50 (Homo sapiens, CAMA-1, CAMA-1, Breast): > 25 µM | IC50 (Homo sapiens, CAPAN-1, Capan-1, Pancreas): > 25 µM | IC50 (Homo sapiens, CCF-STTG1, CCF-STTG1, CNS): > 25 µM | IC50 (Homo sapiens, CCRF-CEM, CCRFCEM, Haematopoietic and lymphoid): > 25 µM | IC50 (Homo sapiens, CFPAC-1, CFPAC-1, Pancreas): > 25 µM | IC50 (Homo sapiens, CGTH-W-1, CGTH-W-1, Endocrine): > 25 µM | IC50 (Homo sapiens, CHL-1, CHL-1, Skin): > 25 µM | IC50 (Homo sapiens, CHP-212, CHP-212, CNS): > 25 µM | IC50 (Homo sapiens, COLO 201, Colo 201, Colon/GI): > 25 µM | IC50 (Homo sapiens, COLO 205, Colo 205, Colon/GI): > 25 µM | IC50 (Homo sapiens, COLO 320DM, Colon/GI): > 25 µM | IC50 (Homo sapiens, COLO-320-HSR, Colo 320 HSR, Colon/GI): > 25 µM | IC50 (Homo sapiens, COLO-829, COLO 829, Skin): > 25 µM | IC50 (Homo sapiens, COR-L23, COR-L23, Lung): > 25 µM | IC50 (Homo sapiens, COR-L105, COR-L105, Lung): > 25 µM | IC50 (Homo sapiens, CRO-AP2, CRO-AP2, Haematopoietic and lymphoid): > 25 µM | IC50 (Homo sapiens, Calu-1, Calu1, Lung): > 25 µM | IC50 (Homo sapiens, Calu-6, Calu6, Lung): > 25 µM | IC50 (Homo sapiens, Caov-3, CaOV3, Female GU): > 25 µM | IC50 (Homo sapiens, Capan-2, Capan-2, Pancreas): > 25 µM | IC50 (Homo sapiens, ChaGo-K-1, ChaGoK1, Lung): > 25 µM | IC50 (Homo sapiens, D283 Med, CNS): > 25 µM | IC50 (Homo sapiens, DBTRG-05MG, CNS): > 25 µM | IC50 (Homo sapiens, DLD-1, DLD-1, Colon/GI): > 25 µM | IC50 (Homo sapiens, DMS-53, DMS53, Lung): > 25 µM | IC50 (Homo sapiens, DMS-114, DMS114, Lung): > 25 µM | IC50 (Homo sapiens, DMS-273, DMS273, Lung): > 25 µM | IC50 (Homo sapiens, DOHH-2, DOHH-2, Haematopoietic and lymphoid): 8.66 µM | IC50 (Homo sapiens, DU-145, DU145, Prostate): > 25 µM | IC50 (Homo sapiens, Daoy, CNS): > 25 µM | IC50 (Homo sapiens, Daudi, Haematopoietic and lymphoid): > 25 µM | IC50 (Homo sapiens, Detroit 562, Detroit 562, Head and Neck): > 25 µM | IC50 (Homo sapiens, DoTc2-4510, DoTc2 4510, Female GU): > 25 µM | IC50 (Homo sapiens, EFM-19, EFM-19, Breast): > 25 µM | IC50 (Homo sapiens, FaDu, Head and Neck): > 25 µM | IC50 (Homo sapiens, G-401, G-401, Kidney): > 25 µM | IC50 (Homo sapiens, G-402, G-402, Kidney): > 25 µM | IC50 (Homo sapiens, HCT-8, HCT-8, Colon/GI): > 25 µM | IC50 (Homo sapiens, HCT-15, HCT-15, Colon/GI): > 25 µM | IC50 (Homo sapiens, HCT-116, HCT-116, Colon/GI): > 25 µM | IC50 (Homo sapiens, HEC-1-A, Female GU): > 25 µM | IC50 (Homo sapiens, HEL 92.1.7, HEL-92-1-7, Haematopoietic and lymphoid): > 25 µM | IC50 (Homo sapiens, HMCB, Skin): > 25 µM | IC50 (Homo sapiens, HPAF-II, Pancreas): > 25 µM | IC50 (Homo sapiens, HT1197, HT-1197, Bladder): > 25 µM | IC50 (Homo sapiens, HT-29, HT-29, Colon/GI): > 25 µM | IC50 (Homo sapiens, HT-1080, HT-1080, Soft Tissue): > 25 µM | IC50 (Homo sapiens, HT-1376, HT1376, Bladder): > 25 µM | IC50 (Homo sapiens, HeLa, Female GU): > 25 µM | IC50 (Homo sapiens, HepG2, HepG2, Liver): > 25 µM | IC50 (Homo sapiens, Hs 294T, Skin): > 25 µM | IC50 (Homo sapiens, Hs 695T, Skin): > 25 µM | IC50 (Homo sapiens, Hs746T, HS 746T, Colon/GI): > 25 µM | IC50 (Homo sapiens, Hs-578T, Hs 578T, Breast): > 25 µM | IC50 (Homo sapiens, HuCCT-1, HuCCT1, Liver): > 25 µM | IC50 (Homo sapiens, HuP-T4, HuP-T4, Pancreas): > 25 µM | IC50 (Homo sapiens, J-RT3-T3-5, J-RT3-T3-5, Haematopoietic and lymphoid): > 25 µM | IC50 (Homo sapiens, JEG-3, JEG-3, Female GU): > 25 µM | IC50 (Homo sapiens, Jurkat, Haematopoietic and lymphoid): > 25 µM | IC50 (Homo sapiens, K562, K562, Haematopoietic and lymphoid): > 25 µM | IC50 (Homo sapiens, KATO III, Colon/GI): > 25 µM | IC50 (Homo sapiens, L-428, L-428, Haematopoietic and lymphoid): > 25 µM | IC50 (Homo sapiens, LNCaP, Prostate): > 25 µM
